According to the supplement of paper PMC10307832:

Columns and labels:
Assay in all cases: relative viability (nuclei count vs DMSO), 5 days (fraction); higher = more cells survive
[1] = compound: C[C@@]1(C(=O)Nc2ccc(F)nc2)CCCN1c1nc(Nc2cc(C3CC3)n[nH]2)c2cccn2n1 + CS(=O)(=O)N1CCN(Cc2cc3nc(-c4cccc5[nH]ncc45)nc(N4CCOCC4)c3s2)CC1 [Pictilisib] (partner 1 µM)
Method in brief: (§1)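 Cells from lung cancer lines were seeded into 1536-well plates and, one day later, dosed by pin tool. Treatments were either a single drug or a fixed dose of an anchor drug with five library-drug doses (not always all listed) in √10 steps. After 5 days, nuclei were stained in a one-step fixation (final 0.05% Triton X-100, 1% formaldehyde, 1 ug/ml Hoechst) and counted on 4× images, and relative viability is the treated-to-vehicle nuclei ratio, as the median of duplicate plates.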

Motesanib + Olaparib = compound: CC1(C)CNc2cc(NC(=O)c3cccnc3NCc3ccncc3)ccc21 [Motesanib] + O=C(c1cc(Cc2n[nH]c(=O)c3ccccc23)ccc1F)N1CCN(C(=O)C2CC2)CC1 [Olaparib] (partner 8 µM)
Method in brief: as §1

Motesanib + Luminespib = compound: CC1(C)CNc2cc(NC(=O)c3cccnc3NCc3ccncc3)ccc21 [Motesanib] + CCNC(=O)c1noc(-c2cc(C(C)C)c(O)cc2O)c1-c1ccc(CN2CCOCC2)cc1 [Luminespib] (partner 0.01 µM)
Method in brief: as §1

[2] = compound: C[C@@]1(C(=O)Nc2ccc(F)nc2)CCCN1c1nc(Nc2cc(C3CC3)n[nH]2)c2cccn2n1 + NC(=O)Nc1cc(-c2cccc(F)c2)sc1C(=O)N[C@H]1CCCNC1 [AZD7762] (partner 0.2 µM)
Method in brief: as §1

Row | Cell Line | relative viability ([1]; first compound 0.04 µM) | relative viability ([1]; first compound 0.1265 µM) | relative viability ([1]; first compound 0.4 µM) | relative viability ([1]; first compound 1.265 µM) | relative viability (Motesanib + Olaparib; first compound 0.01 µM) | relative viability (Motesanib + Olaparib; first compound 0.03162 µM) | relative viability (Motesanib + Olaparib; first compound 0.1 µM) | relative viability (Motesanib + Olaparib; first compound 0.3162 µM) | relative viability (Motesanib + Olaparib; first compound 1 µM) | relative viability (Motesanib + Luminespib; first compound 0.01 µM) | relative viability (Motesanib + Luminespib; first compound 0.03162 µM) | relative viability (Motesanib + Luminespib; first compound 0.1 µM) | relative viability (Motesanib + Luminespib; first compound 0.3162 µM) | relative viability (Motesanib + Luminespib; first compound 1 µM) | relative viability ([2]; first compound 0.04 µM) | relative viability ([2]; first compound 0.1265 µM) | relative viability ([2]; first compound 0.4 µM) | relative viability ([2]; first compound 1.265 µM)
1 | HOP-62 | 0.882 | 0.632 | 0.525 | 0.818 | 0.47 | 0.38 | 0.389 | 0.564 | 0.616 | 0.942 | 0.834 | 0.954 | 0.853 | 0.935 | 0.812 | 0.541 | 0.427 | 0.547
2 | HCC-78 | 0.204 | 0.148 | 0.172 | 0.189 | 0.938 | 0.789 | 0.655 | – | 0.834 | – | – | – | – | – | 0.593 | 0.419 | 0.418 | 0.4
3 | IA-LM | 0.175 | 0.261 | 0.125 | 0.179 | 0.757 | 0.834 | 0.722 | 0.855 | 0.822 | – | – | – | – | – | – | – | – | –
4 | COR-L23 | 0.518 | 0.463 | 0.31 | 0.335 | 0.366 | 0.389 | 0.275 | 0.363 | 0.36 | 0.605 | 0.694 | 0.728 | 0.665 | 0.738 | – | – | – | –
5 | NCI-H2023 | 0.197 | 0.129 | 0.118 | 0.146 | 0.469 | 0.409 | 0.515 | 0.496 | 0.425 | 0.778 | 0.687 | 0.855 | 0.811 | 0.783 | – | – | – | –
6 | COR-L 105 | 0.414 | 0.328 | 0.26 | 0.241 | 0.767 | 0.761 | 0.745 | 0.725 | 0.804 | 0.737 | 0.894 | 0.896 | 0.73 | 0.843 | – | – | – | –
7 | NCI-H520 | 0.317 | 0.298 | 0.284 | 0.361 | 0.319 | 0.32 | 0.294 | 0.297 | 0.392 | 0.22 | 0.276 | 0.27 | 0.196 | 0.242 | – | – | – | –
8 | SK-LU-1 | 0.546 | 0.453 | 0.428 | 0.502 | 0.445 | 0.504 | 0.425 | 0.505 | 0.373 | 0.219 | 0.188 | 0.195 | 0.204 | 0.158 | – | – | – | –
9 | NCI-H2342 | – | – | – | – | 0.472 | 0.569 | 0.403 | 0.469 | 0.463 | 0.647 | 0.622 | 0.795 | 0.642 | 0.841 | 0.475 | 0.375 | 0.404 | 0.323
10 | NCI-H1299 | 0.752 | 0.844 | 0.669 | 0.286 | 0.938 | 0.973 | 1.03 | 1.02 | 0.898 | – | – | – | – | – | – | – | – | –
11 | NCI-H1650 | 0.561 | 0.489 | 0.533 | 0.403 | 0.746 | 0.875 | 0.914 | 0.632 | 0.843 | 0.181 | 0.179 | 0.185 | 0.19 | 0.2 | – | – | – | –
12 | NCI-H2009 | 0.824 | 0.765 | 0.653 | 0.717 | 0.717 | 0.667 | 0.693 | 0.646 | 0.682 | 1.01 | 1.04 | 0.945 | 1.07 | 1.01 | – | – | – | –
13 | SW 900 | – | – | – | – | 0.904 | 0.677 | 0.811 | 0.9 | 0.917 | 0.172 | 0.181 | 0.182 | 0.168 | 0.167 | 0.541 | 0.688 | 0.5 | 0.561
14 | SK-MES-1 | 0.335 | 0.268 | 0.286 | 0.306 | 0.736 | 0.725 | 0.736 | 0.677 | 0.575 | 0.84 | 0.842 | 0.986 | 0.785 | 0.721 | – | – | – | –
15 | NCI-H1648 | – | – | – | – | 0.563 | – | – | 1.1 | 1.06 | – | – | – | – | – | 0.671 | 0.608 | 0.586 | 0.676
16 | NCI-H522 | – | – | – | – | 0.691 | 0.674 | 0.594 | 0.677 | 0.876 | – | 1.14 | 1.22 | 1.18 | 1.1 | 0.678 | 0.539 | 0.791 | 0.821
17 | HCC-366 | 0.105 | 0.104 | 0.101 | 0.12 | 0.278 | 0.375 | 0.403 | 0.352 | 0.397 | – | – | – | – | – | 0.356 | 0.31 | 0.293 | 0.152
18 | A549 | 0.283 | 0.292 | 0.172 | 0.148 | 0.333 | 0.402 | 0.407 | 0.438 | 0.402 | – | – | – | – | – | – | – | – | –
19 | NCI-H661 | 0.432 | 0.355 | 0.408 | – | 0.748 | 0.76 | 0.784 | 0.749 | 0.774 | 0.912 | 0.968 | 0.948 | 0.952 | 0.901 | – | – | – | –
20 | NCI-H1563 | 0.625 | 0.614 | 0.596 | 0.598 | – | – | – | – | – | 0.523 | 0.504 | 0.54 | 0.542 | 0.487 | – | – | – | –
